Data as given in the supplement of paper PMC13380429.
± gives the standard deviation of the averaged measurements.

Tests used:
Details in all cases: 72 h
[1] = system: Caco-2; assay: drug sensitivity score (DSS) for viability; higher = more toxic; extreme values may be limits of the assay
[2] = system: Calu-3; assay: as above
[3] = system: U2OS; assay: as above
[4] = system: HepG2; assay: as above
[5] = system: Vero E6; assay: as above
[6] = system: Caco-2; assay: cell viability relative to DMSO; higher = less toxic
[7] = system: Calu-3; assay: as above
[8] = system: U2OS; assay: as above
[9] = system: HepG2; assay: as above
[10] = system: Vero E6; assay: as above
[11] = system: Caco-2; assay: relative viability EC50 (midpoint between 100% and the lowest measured viability); higher = less toxic
[12] = system: Calu-3; assay: as above
[13] = system: U2OS; assay: as above
[14] = system: HepG2; assay: as above
[15] = system: Vero E6; assay: as above

Structure (SMILES)	drug sensitivity score [1]	drug sensitivity score [2]	drug sensitivity score [3]	drug sensitivity score [4]	drug sensitivity score [5]	cell viability ([6]; 1 nM)	cell viability ([6]; 10 nM)	cell viability ([6]; 100 nM)	cell viability ([6]; 1000 nM)	cell viability ([6]; 10000 nM)	cell viability ([7]; 1 nM)	cell viability ([7]; 10 nM)	cell viability ([7]; 100 nM)	cell viability ([7]; 1000 nM)	cell viability ([7]; 10000 nM)	cell viability ([8]; 1 nM)	cell viability ([8]; 10 nM)	cell viability ([8]; 100 nM)	cell viability ([8]; 1000 nM)	cell viability ([8]; 10000 nM)	cell viability ([9]; 1 nM)	cell viability ([9]; 10 nM)	cell viability ([9]; 100 nM)	cell viability ([9]; 1000 nM)	cell viability ([9]; 10000 nM)	cell viability ([10]; 1 nM)	cell viability ([10]; 10 nM)	cell viability ([10]; 100 nM)	cell viability ([10]; 1000 nM)	cell viability ([10]; 10000 nM)	relative viability EC50 [11]	relative viability EC50 [12]	relative viability EC50 [13]	relative viability EC50 [14]	relative viability EC50 [15]
Cc1ccccc1-n1c(CF)nc2ccc(N)cc2c1=O [afloqualone]	0	0	0	0	0	98%	102%	104%	101%	110%	98.1%	96.8%	101%	108%	109%	98.3%	97.9%	102%	98.6%	102%	100%	94%	100%	83.3%	93.7%	105%	98.2%	100%	102%	92.4%	> 10 µM	> 10 µM	> 10 µM	> 10 µM	> 10 µM
CN(C)Cc1ccc(S(=O)(=O)n2ccc(/C=C/C(=O)NO)c2)cc1 [resminostat]	5.1	6.2	7.2	9.1	8.4	99.6%	101%	103%	98.4%	12.4%	102%	96.3%	92.9%	86.2%	27.9%	95.2%	105%	97.9%	88.1%	5.5%	110%	110%	94%	69.2%	7.9%	106%	103%	101%	82.1%	2%	3.03 µM	1.77 µM	2.14 µM	1.38 µM	1.81 µM
N=C(N)NC(=N)Nc1cccc(Cl)c1 [m-chlorophenylbiguanide]	0	0	0	0	0	101%	92.2%	100%	101%	97.1%	108%	94.7%	106%	98%	116%	94.3%	98.9%	103%	95.9%	101%	112%	106%	102%	105%	99.2%	100%	101%	95.9%	101%	96.9%	> 10 µM	> 10 µM	> 10 µM	> 10 µM	> 10 µM
CN(C)CC[C@@H](c1ccc(Cl)cc1)c1ccccn1 [chlorphenamine]	0	0	0	0	0	102 ± 3.8%	100 ± 2.9%	102%	98.8 ± 3.8%	93.05 ± 0.35%	97.8 ± 1.2%	95.2 ± 1.8%	93.3 ± 3.8%	97.7 ± 3.3%	96.4 ± 14%	98 ± 3.7%	97.8 ± 0.71%	94.7 ± 1.7%	95.2 ± 2.4%	93 ± 2.6%	102 ± 2%	113.5 ± 0.71%	96.4 ± 2.8%	94.7 ± 2.3%	99.2 ± 10%	103 ± 6.3%	103 ± 6.7%	99.1 ± 1.3%	95.4 ± 3.7%	96.8 ± 3.2%	> 10 µM	> 10 µM	> 10 µM	> 10 µM	> 10 µM
CCNCC(O)c1cccc(O)c1 (stereo not given) [etilefrine]	0	0	0	0	0	92.1%	105%	93%	99.7%	104%	99.2%	102%	98.9%	102%	104%	98.9%	103%	98.1%	98.9%	95.7%	95.2%	87.3%	89%	93%	104%	97.1%	93.6%	98.3%	96.4%	99.6%	> 10 µM	> 10 µM	> 10 µM	> 10 µM	> 10 µM
CCOC(=O)[C@@]1(CCCCCCOc2ccc(Cl)cc2)CO1 [etomoxir]	0.4	0	0	0	0	92.6%	97.6%	98.2%	98%	85.6%	106%	114%	98.2%	117%	110%	105%	102%	104%	103%	97.7%	115%	106%	101%	108%	91.7%	113%	106%	110%	104%	98.1%	> 10 µM	> 10 µM	> 10 µM	> 10 µM	> 10 µM
Cc1onc(-c2ccccc2)c1C(=O)N[C@@H]1C(=O)N2[C@@H]1SC(C)(C)[C@@H]2C(=O)O [oxacillin]	0	0	0	0	0	92.9%	93.3%	98.1%	85.2%	116%	92.6%	104%	102%	99.1%	96.2%	100%	98.7%	98%	98.9%	108%	89.9%	102%	91.3%	114%	108%	99.4%	87.2%	102%	93.9%	94%	> 10 µM	> 10 µM	> 10 µM	> 10 µM	> 10 µM
CC(=C(CCO)SSCC1CCCO1)N(C=O)Cc1cnc(C)nc1N (stereo in doubt) [fursultiamine]	0	0	0	0	0	112%	91.6%	97.6%	106%	96%	98.5%	101%	108%	110%	114%	101%	102%	98.7%	97.8%	98.2%	93.3%	87.5%	90.2%	110%	97.8%	106%	95.5%	99.2%	97.3%	102%	> 10 µM	> 10 µM	> 10 µM	> 10 µM	> 10 µM
Clc1cccc(Cl)c1CSc1nnc(-c2cnccn2)s1 [yoda-1]	0.9	0	0	0	0	100%	95.3%	94.7%	92.6%	79.6%	98.8%	91.1%	97%	98.8%	91%	101%	98.9%	90.6%	92%	93%	84.7%	100%	97.6%	102%	91%	97.4%	100%	94.2%	96%	94%	> 10 µM	> 10 µM	> 10 µM	> 10 µM	> 10 µM
c1ccc(C2CN3CCSC3=N2)cc1 (stereo not given) [tetramisole]	0.85 ± 1.2	0	0	0	0	95 ± 7.1%	102 ± 11%	92.65 ± 0.78%	91.9 ± 8.6%	96.5 ± 1.7%	98.7 ± 5%	97.85 ± 0.92%	99.7 ± 1.3%	110 ± 12%	94.7 ± 1.6%	99.8 ± 1.8%	98.2 ± 2.3%	98.3 ± 1.8%	97.9 ± 1.1%	100 ± 6.9%	101.9 ± 0.14%	95.6 ± 0.57%	96.2 ± 3.5%	93.1 ± 5.7%	100 ± 4.2%	93.8 ± 2.8%	98.5 ± 1.6%	96.2 ± 3.3%	96.8 ± 0.57%	101 ± 1.1%	> 10 µM	> 10 µM	> 10 µM	> 10 µM	> 10 µM
COc1cc(Nc2nc3ccccc3nc2NS(=O)(=O)c2ccc(NC(=O)c3ccc(C)c(OC)c3)cc2)cc(OC)c1	0	0	0	0	0	95.4%	100%	96%	97.7%	103%	109%	85.9%	109%	94.4%	110%	97%	97.7%	97.1%	95.9%	103%	101%	83.8%	92.1%	99.1%	89.7%	99.9%	95.9%	102%	95.7%	99.9%	> 10 µM	> 10 µM	> 10 µM	> 10 µM	> 10 µM
CC(=O)N[C@@H](Cc1c[nH]c2ccccc12)C(=O)OCc1cc(C(F)(F)F)cc(C(F)(F)F)c1 [L-732,138]	0	0	0	0	0	91.7%	92.8%	96.4%	97.5%	92.8%	95.4%	102%	92.6%	103%	102%	96.7%	94.7%	97.4%	94.4%	99.2%	91.1%	106%	105%	104%	105%	89.1%	97.3%	86.3%	95.3%	109%	> 10 µM	> 10 µM	> 10 µM	> 10 µM	> 10 µM
CC(=O)N[C@@H](CCC(N)=O)C(=O)O [aceglutamide]	3.5	0	0	0	0.3	95.5%	103%	84.5%	82.4%	83%	101%	89.8%	101%	110%	103%	106%	103%	99.2%	98.8%	98.5%	90.7%	89.7%	104%	92.5%	86.4%	98.3%	104%	99.8%	99.9%	83.7%	> 10 µM	> 10 µM	> 10 µM	> 10 µM	> 10 µM
Cc1cc(OCCCS(C)(=O)=O)cc(C)c1-c1cccc(COc2ccc3c(c2)OC[C@H]3CC(=O)O)c1 [TAK-875]	2.5	0	0	0	0	99.8%	101%	89.3%	85.4%	77.8%	98.2%	105%	99.8%	111%	102%	95.6%	98.7%	96.9%	96.7%	94.3%	93.8%	97.3%	95.9%	94.4%	96.7%	100%	106%	97.3%	98.7%	96.3%	> 10 µM	> 10 µM	> 10 µM	> 10 µM	> 10 µM
